# Literature values as cited in patent publication US20200215149A1, “N-Phenylacetyl-L-prolylglycine ethyl ester compositions and methods for using the same” (priority 2019, published 2020).
# Where two headings read alike, the source gives them in different places. Where a SMILES comes first, the peptide text is derived from it. The star is where a group is joined. PhAc = O=C(Cc1ccccc1)*
# Tests used:
# [1] = Ostrovskaya, et al. (2008); Hayakawa, et al. (2007)
# [2] = ratio versus piracetam; Neznamov and Teleshova (2009)
SMILES,"side effects (humans who consume effective doses of CBD, Bergamaschi, et al. (2011))",tolerance or addiction [1],"side effects (healthy human subjects, compared with piracetam, Neznamov and Teleshova (2009))","effective dose, times smaller in mass than the effective dose of piracetam [2]"
"C=C(C)[C@@H]1CCC(C)=C[C@H]1c1c(O)cc(CCCCC)cc1O [CBD, cannabidiol]",generally does not cause significant side effects,neither noopept nor CBD has been shown to cause the user to become tolerant or addicted,–,–
"CCOC(=O)CNC(=O)[C@@H]1CCCN1C(=O)Cc1ccccc1 [noopept, N-Phenylacetyl-L-prolylglycine ethyl ester] (PhAc-Pro-Gly-OEt)",–,neither noopept nor CBD has been shown to cause the user to become tolerant or addicted,fewer side effects,over 50 times
